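Protocol summary: plate cells (96-well), add compound at 5 concentrations, incubate 48 h, interpolate endpoints linearly. The concentration for 50% growth inhibition is given as GI50.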 The source made the active and inactive calls. Cut-off read from the data, not from the text of the source: active = GI50 up to about 1.1 µM and inactive = higher.
Assays:
Experiment in all cases: NCI anticancer screen, dose series, 48 h
SK-MEL-28 = tested on: SK-MEL-28
HCC 2998 = tested on: HCC 2998
M14 = tested on: M14
HT-29 = tested on: HT-29
NCI/ADR-RES = tested on: NCI/ADR-RES
HOP-92 = tested on: HOP-92
HL-60 = tested on: HL-60
MCF7 = tested on: MCF7
LXFL 529 = tested on: LXFL 529
LOX IMVI = tested on: LOX IMVI
SNB-75 = tested on: SNB-75
PC-3 = tested on: PC-3
MDA-N = tested on: MDA-N
CAKI-1 = tested on: CAKI-1
NCI-H226 = tested on: NCI-H226
SF-295 = tested on: SF-295
SK-OV-3 = tested on: SK-OV-3
UACC-62 = tested on: UACC-62
SK-MEL-5 = tested on: SK-MEL-5
ACHN = tested on: ACHN

Measured: GI50

COc1ccc(/C=C(\Cl)c2ccc(OC)c(OC)c2)cc1OC
inactive: SK-MEL-28 > 100 µM | HCC 2998 > 100 µM | M14 > 100 µM | HT-29 > 100 µM | NCI/ADR-RES > 100 µM | HOP-92 56 µM | HL-60 > 100 µM | MCF7 > 100 µM | LXFL 529 > 100 µM | LOX IMVI > 100 µM | SNB-75 > 100 µM | PC-3 > 100 µM | MDA-N > 100 µM | CAKI-1 > 100 µM | NCI-H226 > 100 µM | SF-295 > 91.8 µM | SK-OV-3 > 100 µM | UACC-62 > 100 µM | SK-MEL-5 > 100 µM | ACHN > 100 µM

CSc1nc(NC2OCC(OC(C)=O)C(OC(C)=O)C2OC(C)=O)c(/N=C\C=N\c2c(NC3OCC(OC(C)=O)C(OC(C)=O)C3OC(C)=O)nc(SC)[nH]c2=O)c(=O)[nH]1 (centres undefined)
inactive: SK-MEL-28 > 100 µM | HCC 2998 > 100 µM | M14 > 100 µM | HT-29 > 100 µM | NCI/ADR-RES 34.3 µM | HOP-92 35.5 µM | HL-60 > 100 µM | MCF7 46.5 µM | LXFL 529 > 83.6 µM | LOX IMVI > 100 µM | SNB-75 19.9 µM | MDA-N > 100 µM | CAKI-1 > 100 µM | NCI-H226 > 52.8 µM | SF-295 > 66.8 µM | SK-OV-3 28.9 µM | UACC-62 > 100 µM | SK-MEL-5 > 100 µM | ACHN > 67.8 µM

Reference: ChEMBL document CHEMBL1201862, “PubChem BioAssay data set” (2004)
